# From US20140378374A1, “METHODS OF TREATMENT” (GlaxoSmithKline Intellectual Property (No.2) Limited, priority 2013, published 2014)
# Read-outs that look alike come from different tables or passages of the source.
# What was measured:
# patients with T2D and RI = format: in vivo, human; settings: for Model-adjusted change from baseline A1C, LS mean (SE): ANCOVA
# Method: Therapies for type 2 diabetes mellitus (T2DM) with renal impairment (RI) are limited and may require dose adjustment. This 52-week randomized, double blind, active controlled, Phase III parallel group study examined efficacy/safety of QW Albi injections (30 mg uptitrated to 50 mg if needed) vs daily Sita in patients with T2D and RI (eGFR≧15 and <90 mL/min/1.73 m^2) and A1C 7-10% on lifestyle (11% of subjects) or metformin (Met), thiazoldinedone (TZD), sulfonylureas (SU), or any combination (89% of patients). […] Primary endpoint was A1C change at week 26 for Albi vs Sita (noninferiority with subsequent superiority analysis). Eligible subjects were men or non pregnant, nonlactating women, 18 years of age or older, with a historical diagnosis of T2DM who were experiencing inadequate glycemic control on their current regimen of diet and exercise or their antidiabetic therapy of metformin, TZD, SU, or any combination of these OAD medications.
# [1] = each group with CKD (mild, moderate, severe); cited from earlier work
# [2] = tested on: patients with type 2 diabetes; settings: head-to-head trial; cited from earlier work
# [3] = Week 26, Moderate RI (eGFR 30-59)
# [4] = Week 26, Severe RI (eGFR 15-29)
smiles,measurement,setting,value
"N[C@@H](CC(=O)N1CCn2c(nnc2C(F)(F)F)C1)Cc1cc(F)c(F)cc1F [Sitagliptin, sitagliptin, reference compound]","Week 26 A1C, mean",patients with T2D and RI; Any RI (eGFR 15-89),7.68%
same,"Week 26 A1C, mean",patients with T2D and RI; Mild RI (eGFR 60-89 mL/min/1.73 m2),7.50%
same,"Week 26 A1C, mean",patients with T2D and RI; Moderate RI (eGFR 30-59),7.91%
same,"Week 26 A1C, mean",patients with T2D and RI; Severe RI (eGFR 15-29),7.67%
same,"A1C<7% achieved, patients",patients with T2D and RI; Week 26,30.5%
same,FPG change,patients with T2D and RI; Week 26,-3.9 mg/dL
same,weight change,patients with T2D and RI; Week 26,-0.2 kg
same,"Model-adjusted change from baseline A1C, LS mean (SE)","patients with T2D and RI; Week 26, Any RI (eGFR 15-89)",−0.52%
same,"Model-adjusted change from baseline A1C, LS mean (SE)","patients with T2D and RI; Week 26, Mild RI (eGFR 60-89)",−0.67%
same,"Model-adjusted change from baseline A1C, LS mean (SE)",patients with T2D and RI; [3],−0.31%
same,"Model-adjusted change from baseline A1C, LS mean (SE)",patients with T2D and RI; [4],−0.61%
same,"Change from baseline A1C, mean (SD)","patients with T2D and RI; Week 26, Any RI (eGFR 15-89)",−0.54%
same,"Change from baseline A1C, mean (SD)","patients with T2D and RI; Week 26, Mild RI (eGFR 60-89)",−0.66%
same,"Change from baseline A1C, mean (SD)",patients with T2D and RI; [3],−0.37%
same,"Change from baseline A1C, mean (SD)",patients with T2D and RI; [4],−0.65%
same,Adverse Event rate: diarrhea,"patients with T2D and RI; both, human, in vivo, 26 weeks",6.1%
same,Adverse Event rate: nausea,"patients with T2D and RI; both, human, in vivo, 26 weeks",2.8%
same,Adverse Event rate: vomiting,"patients with T2D and RI; both, human, in vivo, 26 weeks",0.8%
same,Hypoglycemia rate,"patients with T2D and RI; both, human, in vivo, 26 weeks",13.4%
same,"Hypoglycemia, severe (number)","patients with T2D and RI; both, human, in vivo, 26 weeks",2
same,Injection site reaction rate,"patients with T2D and RI; both, human, in vivo, 26 weeks",2.8%
same,On-therapy adverse event: Constipation,"patients with T2D and RI; both, human, in vivo, 26 weeks",5 (2.0) n (%)
same,On-therapy adverse event: Diarrhea,"patients with T2D and RI; both, human, in vivo, 26 weeks",15 (6.1) n (%)
same,On-therapy adverse event: Hypertension,"patients with T2D and RI; both, human, in vivo, 26 weeks",15 (6.1) n (%)
same,On-therapy adverse event: Nasopharyngitis,"patients with T2D and RI; both, human, in vivo, 26 weeks",16 (6.5) n (%)
same,On-therapy adverse event: Upper respiratory tract infection,"patients with T2D and RI; both, human, in vivo, 26 weeks",16 (6.5) n (%)
same,On-therapy adverse event: Urinary tract infection,"patients with T2D and RI; both, human, in vivo, 26 weeks",15 (6.1) n (%)
"CCCCCCCCCCCCCCCC(=O)N[C@@H](CCC(=O)NCCCC[C@H](NC(=O)[C@H](C)NC(=O)[C@H](C)NC(=O)[C@H](CCC(N)=O)NC(=O)CNC(=O)[C@H](CCC(=O)O)NC(=O)[C@H](CC(C)C)NC(=O)[C@H](Cc1ccc(O)cc1)NC(=O)[C@H](CO)NC(=O)[C@H](CO)NC(=O)[C@@H](NC(=O)[C@H](CC(=O)O)NC(=O)[C@H](CO)NC(=O)[C@@H](NC(=O)[C@H](Cc1ccccc1)NC(=O)[C@@H](NC(=O)CNC(=O)[C@H](CCC(=O)O)NC(=O)[C@H](C)NC(=O)[C@@H](N)Cc1cnc[nH]1)[C@@H](C)O)[C@@H](C)O)C(C)C)C(=O)N[C@@H](CCC(=O)O)C(=O)N[C@@H](Cc1ccccc1)C(=O)N[C@H](C(=O)N[C@@H](C)C(=O)N[C@@H](Cc1c[nH]c2ccccc12)C(=O)N[C@@H](CC(C)C)C(=O)N[C@H](C(=O)N[C@@H](CCCNC(=N)N)C(=O)NCC(=O)N[C@@H](CCCNC(=N)N)C(=O)NCC(=O)O)C(C)C)[C@@H](C)CC)C(=O)O [liraglutide, reference compound]",exposure vs group with normal renal function,[1],reduced exposure
same,"nausea, percentage",[2],29%
same,"vomiting, percentage",[2],9%
